{
  "source": "patent US10040781B2",
  "about": "“Tank-binding kinase inhibitor compounds” (Gilead Sciences, Inc., priority 2014, dated 2018)",
  "key": {"[1]": {"target": "IKKε (Homo sapiens (Human), UniProt Q14164)", "sequence (Q14164 whole entry)": "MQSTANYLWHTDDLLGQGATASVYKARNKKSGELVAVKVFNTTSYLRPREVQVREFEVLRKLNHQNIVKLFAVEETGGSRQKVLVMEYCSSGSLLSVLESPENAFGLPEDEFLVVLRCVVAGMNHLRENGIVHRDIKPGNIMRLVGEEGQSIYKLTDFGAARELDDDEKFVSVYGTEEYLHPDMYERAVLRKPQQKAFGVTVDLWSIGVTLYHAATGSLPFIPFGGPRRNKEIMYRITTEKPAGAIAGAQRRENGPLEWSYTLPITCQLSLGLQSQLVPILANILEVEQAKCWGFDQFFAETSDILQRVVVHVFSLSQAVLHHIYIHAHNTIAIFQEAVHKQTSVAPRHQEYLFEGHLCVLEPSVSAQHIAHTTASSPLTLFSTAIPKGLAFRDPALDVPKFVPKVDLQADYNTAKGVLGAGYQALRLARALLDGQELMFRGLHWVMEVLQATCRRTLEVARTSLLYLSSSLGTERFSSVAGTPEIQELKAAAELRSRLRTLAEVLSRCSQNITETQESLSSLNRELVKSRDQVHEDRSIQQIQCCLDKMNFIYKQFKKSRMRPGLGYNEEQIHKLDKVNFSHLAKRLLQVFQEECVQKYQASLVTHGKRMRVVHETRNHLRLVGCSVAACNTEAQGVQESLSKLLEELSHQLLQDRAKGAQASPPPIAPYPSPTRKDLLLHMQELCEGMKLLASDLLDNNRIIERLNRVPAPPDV", "experiment": "IKKε TR-FRET enzymatic assay", "type": "biochemical", "settings": "read-out: IKKe IC50"}, "[2]": {"target": "TBK1 (Homo sapiens (Human), UniProt Q9UHD2)", "sequence (Q9UHD2 whole entry)": "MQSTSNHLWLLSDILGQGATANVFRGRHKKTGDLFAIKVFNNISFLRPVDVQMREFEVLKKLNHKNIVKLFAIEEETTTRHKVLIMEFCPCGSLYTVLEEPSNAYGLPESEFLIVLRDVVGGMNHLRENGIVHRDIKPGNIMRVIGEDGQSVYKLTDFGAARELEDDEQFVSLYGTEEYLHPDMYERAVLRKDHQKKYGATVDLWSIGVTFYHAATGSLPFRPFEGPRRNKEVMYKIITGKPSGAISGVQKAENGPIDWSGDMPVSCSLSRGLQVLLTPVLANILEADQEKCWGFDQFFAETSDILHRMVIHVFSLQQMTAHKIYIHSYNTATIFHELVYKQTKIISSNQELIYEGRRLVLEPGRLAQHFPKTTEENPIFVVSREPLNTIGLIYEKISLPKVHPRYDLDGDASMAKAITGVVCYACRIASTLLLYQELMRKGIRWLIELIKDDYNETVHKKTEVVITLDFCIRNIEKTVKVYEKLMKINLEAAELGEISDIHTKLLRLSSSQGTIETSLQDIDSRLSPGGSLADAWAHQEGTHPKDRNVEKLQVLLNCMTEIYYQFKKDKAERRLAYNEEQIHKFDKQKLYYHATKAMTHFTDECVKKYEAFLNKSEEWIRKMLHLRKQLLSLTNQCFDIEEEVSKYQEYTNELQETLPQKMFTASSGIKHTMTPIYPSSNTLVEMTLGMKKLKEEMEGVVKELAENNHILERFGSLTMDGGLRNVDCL", "experiment": "TBK1 TR-FRET enzymatic assay;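 note: phosphorylation of a biotinylated Ser/Thr peptide by purified full-length recombinant TBK1, read by TR-FRET after 240 min at 25 °C, IC50 is the geometric mean of at least four runs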"}, "[3]": {"target": "hJAK2 (Homo sapiens (Human), UniProt O60674)", "sequence (O60674 whole entry)": "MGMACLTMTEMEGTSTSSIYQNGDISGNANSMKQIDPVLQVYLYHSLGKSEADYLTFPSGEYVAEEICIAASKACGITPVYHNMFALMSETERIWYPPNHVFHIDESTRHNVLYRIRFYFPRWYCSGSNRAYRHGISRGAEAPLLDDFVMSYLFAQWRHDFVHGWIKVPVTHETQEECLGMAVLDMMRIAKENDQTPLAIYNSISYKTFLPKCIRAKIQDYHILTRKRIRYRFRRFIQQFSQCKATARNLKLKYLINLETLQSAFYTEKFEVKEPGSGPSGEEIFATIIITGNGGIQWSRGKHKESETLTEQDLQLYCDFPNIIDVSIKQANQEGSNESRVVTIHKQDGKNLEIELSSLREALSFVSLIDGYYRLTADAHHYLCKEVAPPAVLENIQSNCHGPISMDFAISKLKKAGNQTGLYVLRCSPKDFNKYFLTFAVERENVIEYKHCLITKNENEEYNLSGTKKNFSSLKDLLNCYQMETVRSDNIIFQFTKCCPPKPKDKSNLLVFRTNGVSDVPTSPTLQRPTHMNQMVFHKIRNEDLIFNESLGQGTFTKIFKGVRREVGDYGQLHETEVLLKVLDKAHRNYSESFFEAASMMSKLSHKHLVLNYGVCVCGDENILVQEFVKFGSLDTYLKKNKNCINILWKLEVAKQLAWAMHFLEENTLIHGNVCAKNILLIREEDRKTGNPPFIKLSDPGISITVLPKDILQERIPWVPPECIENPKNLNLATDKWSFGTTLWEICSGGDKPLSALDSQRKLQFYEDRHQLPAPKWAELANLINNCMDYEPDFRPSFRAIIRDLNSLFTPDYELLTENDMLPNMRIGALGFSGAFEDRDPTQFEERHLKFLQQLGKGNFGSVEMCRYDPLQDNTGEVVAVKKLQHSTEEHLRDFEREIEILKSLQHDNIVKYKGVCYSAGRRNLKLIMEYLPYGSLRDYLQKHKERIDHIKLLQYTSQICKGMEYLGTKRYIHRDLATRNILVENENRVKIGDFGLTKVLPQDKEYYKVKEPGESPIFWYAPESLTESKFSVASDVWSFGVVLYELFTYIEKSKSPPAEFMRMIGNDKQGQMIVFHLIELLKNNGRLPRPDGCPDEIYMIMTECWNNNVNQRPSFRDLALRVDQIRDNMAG", "experiment": "hJAK2 LANCE TR-FRET enzymatic assay", "type": "biochemical", "settings": "read-out: JAK2 IC50"}},
  "data": [
    {"smiles": "C[C@H]1C[C@@H](Oc2ccc(-c3ncnc(Nc4ccc(N5CCN(C6COC6)CC5)cc4)n3)cc2C#N)CN1C(=O)CO", "note": "[Example 100, 2-(((3R,5S)-1-(2-hydroxyacetyl)-5-methylpyrrolidin-3-yl)oxy)-5-(4-((4-(4-(oxetan-3-yl)piperazin-1-yl)phenyl)amino)-1,3,5-triazin-2-yl)benzonitrile]", "values": [
      {"measurement": "IC50", "setting": "[1]", "value": 249, "unit": "nM"},
      {"measurement": "IC50", "setting": "[2]", "value": 121, "unit": "nM"},
      {"measurement": "IC50", "setting": "[3]", "value": 525, "unit": "nM"}
    ]},
    {"smiles": "N#Cc1cc(-c2ncnc(Nc3ccc(N4CCN(C5COC5)CC4)cc3)n2)ccc1O[C@H]1C[C@@H]2C[C@H]1N(C(=O)CO)C2", "note": "[Example 102, 2-(((1R,4S,6S)-2-(2-hydroxyacetyl)-2-azabicyclo[2.2.1]heptan-6-yl)oxy)-5-(4-((4-(4-(oxetan-3-yl)piperazin-1-yl)phenyl)amino)-1,3,5-triazin-2-yl)benzonitrile]", "values": [
      {"measurement": "IC50", "setting": "[1]", "value": 24, "unit": "nM"},
      {"measurement": "IC50", "setting": "[2]", "value": 11, "unit": "nM"},
      {"measurement": "IC50", "setting": "[3]", "value": 380, "unit": "nM"}
    ]},
    {"smiles": "N#Cc1cc(-c2ncnc(Nc3ccc(N4CCOCC4)cc3)n2)ccc1O[C@@H]1CCN(C(=O)CO)C1", "note": "[Example 103, (R)-2-((1-(2-hydroxyacetyl)pyrrolidin-3-yl)oxy)-5-(4-((4-morpholinophenyl)amino)-1,3,5-triazin-2-yl)benzonitrile]", "values": [
      {"measurement": "IC50", "setting": "[1]", "value": 10, "unit": "nM"},
      {"measurement": "IC50", "setting": "[2]", "value": 6, "unit": "nM"},
      {"measurement": "IC50", "setting": "[3]", "value": 260, "unit": "nM"}
    ]},
    {"smiles": "COc1ccc(-c2ncnc(Nc3ccc(N4CCN(C5COC5)CC4)cc3)n2)cc1C#N", "note": "[Example 104, 2-methoxy-5-(4-((4-(4-(oxetan-3-yl)piperazin-1-yl)phenyl)amino)-1,3,5-triazin-2-yl)benzonitrile]", "values": [
      {"measurement": "IC50", "setting": "[1]", "value": 215, "unit": "nM"},
      {"measurement": "IC50", "setting": "[2]", "value": 42, "unit": "nM"},
      {"measurement": "IC50", "setting": "[3]", "value": 328, "unit": "nM"}
    ]},
    {"smiles": "COc1cc(C#N)cc(-c2ncnc(Nc3ccc(N4CCN(C5COC5)CC4)cc3)n2)c1", "note": "[Example 105, 3-methoxy-5-(4-((4-(4-(oxetan-3-yl)piperazin-1-yl)phenyl)amino)-1,3,5-triazin-2-yl)benzonitrile]", "values": [
      {"measurement": "IC50", "setting": "[1]", "value": "> 1000", "unit": "nM"},
      {"measurement": "IC50", "setting": "[2]", "value": 79, "unit": "nM"},
      {"measurement": "IC50", "setting": "[3]", "value": 212, "unit": "nM"}
    ]},
    {"smiles": "N#Cc1cc(-c2ncnc(Nc3ccc(Cn4ccnc4)cc3)n2)ccc1OC1CCOCC1", "note": "[Example 106, 5-(4-((4-((1H-imidazol-1-yl)methyl)phenyl)amino)-1,3,5-triazin-2-yl)-2-((tetrahydro-2H-pyran-4-yl)oxy)benzonitrile]", "values": [
      {"measurement": "IC50", "setting": "[1]", "value": 4, "unit": "nM"},
      {"measurement": "IC50", "setting": "[2]", "value": 5, "unit": "nM"},
      {"measurement": "IC50", "setting": "[3]", "value": "> 1000", "unit": "nM"}
    ]},
    {"smiles": "CC1(O)CCN(c2ccc(Nc3ncnc(-c4ccc(OC5CCOCC5)c(C#N)c4)n3)cc2)C1", "note": "(stereo not drawn) [Example 108, 5-(4-((4-(3-hydroxy-3-methylpyrrolidin-1-yl)phenyl)amino)-1,3,5-triazin-2-yl)-2-((tetrahydro-2H-pyran-4-yl)oxy)benzonitrile]", "values": [
      {"measurement": "IC50", "setting": "[1]", "value": 6, "unit": "nM"},
      {"measurement": "IC50", "setting": "[2]", "value": 3, "unit": "nM"},
      {"measurement": "IC50", "setting": "[3]", "value": "> 1000", "unit": "nM"}
    ]},
    {"smiles": "Cc1cc(N2CCOCC2)ccc1Nc1ncnc(-c2ccc(OC3CCOCC3)c(C#N)c2)n1", "note": "[Example 109, 5-(4-((2-methyl-4-morpholinophenyl)amino)-1,3,5-triazin-2-yl)-2-((tetrahydro-2H-pyran-4-yl)oxy)benzonitrile]", "values": [
      {"measurement": "IC50", "setting": "[1]", "value": 161, "unit": "nM"},
      {"measurement": "IC50", "setting": "[2]", "value": 76, "unit": "nM"},
      {"measurement": "IC50", "setting": "[3]", "value": "> 1000", "unit": "nM"}
    ]},
    {"smiles": "N#Cc1cc(-c2ncnc(Nc3ccc(N4CCN(C5COC5)CC4)cc3)n2)ccc1O[C@H]1CCN(C2CCOC2)C[C@H]1F", "note": "(stereo partly drawn) [Example 110, 2-(((3R,4S)-3-fluoro-1-(tetrahydrofuran-3-yl)piperidin-4-yl)oxy)-5-(4-((4-(4-(oxetan-3-yl)piperazin-1-yl)phenyl)amino)-1,3,5-triazin-2-yl)benzonitrile]", "values": [
      {"measurement": "IC50", "setting": "[1]", "value": 330, "unit": "nM"},
      {"measurement": "IC50", "setting": "[2]", "value": 243, "unit": "nM"},
      {"measurement": "IC50", "setting": "[3]", "value": 740, "unit": "nM"}
    ]},
    {"smiles": "N#Cc1cc(-c2ncnc(Nc3ccc(N4CCN(C5COC5)CC4)cc3)n2)ccc1O[C@H]1CCN(C2COC2)C[C@H]1F", "note": "[Example 111, 2-(((3R,4S)-3-fluoro-1-(oxetan-3-yl)piperidin-4-yl)oxy)-5-(4-((4-(4-(oxetan-3-yl)piperazin-1-yl)phenyl)amino)-1,3,5-triazin-2-yl)benzonitrile]", "values": [
      {"measurement": "IC50", "setting": "[1]", "value": 328, "unit": "nM"},
      {"measurement": "IC50", "setting": "[2]", "value": 146, "unit": "nM"},
      {"measurement": "IC50", "setting": "[3]", "value": 602, "unit": "nM"}
    ]},
    {"smiles": "N#Cc1cc(-c2ncnc(Nc3ccc(N4CCN(C5COC5)CC4)cc3)n2)ccc1OC1CCN(C(=O)[C@@H]2CCC(=O)N2)C[C@H]1F", "note": "(stereo partly drawn) [Example 112, 2-(((3R)-3-fluoro-1-((S)-5-oxopyrrolidine-2-carbonyl)piperidin-4-yl)oxy)-5-(4-((4-(4-(oxetan-3-yl)piperazin-1-yl)phenyl)amino)-1,3,5-triazin-2-yl)benzonitrile]", "values": [
      {"measurement": "IC50", "setting": "[1]", "value": 4, "unit": "nM"},
      {"measurement": "IC50", "setting": "[2]", "value": 4, "unit": "nM"},
      {"measurement": "IC50", "setting": "[3]", "value": 375, "unit": "nM"}
    ]},
    {"smiles": "N#Cc1cc(-c2ncnc(Nc3ccc(N4CCN(C5COC5)CC4)cc3)n2)ccc1OC1CCN(C(=O)[C@H]2CCC(=O)N2)C[C@H]1F", "note": "(stereo partly drawn) [Example 113, 2-(((3R)-3-fluoro-1-((R)-5-oxopyrrolidine-2-carbonyl)piperidin-4-yl)oxy)-5-(4-((4-(4-(oxetan-3-yl)piperazin-1-yl)phenyl)amino)-1,3,5-triazin-2-yl)benzonitrile]", "values": [
      {"measurement": "IC50", "setting": "[1]", "value": 100, "unit": "nM"},
      {"measurement": "IC50", "setting": "[2]", "value": 64, "unit": "nM"},
      {"measurement": "IC50", "setting": "[3]", "value": 292, "unit": "nM"}
    ]},
    {"smiles": "N#Cc1cc(-c2ncnc(Nc3ccc(N4CCN(C5COC5)CC4)cc3)n2)ccc1O[C@H]1CCC(=O)NC1", "note": "[Example 114, (S)-5-(4-((4-(4-(oxetan-3-yl)piperazin-1-yl)phenyl)amino)-1,3,5-triazin-2-yl)-2-((6-oxopiperidin-3-yl)oxy)benzonitrile]", "values": [
      {"measurement": "IC50", "setting": "[1]", "value": 56, "unit": "nM"},
      {"measurement": "IC50", "setting": "[2]", "value": 20, "unit": "nM"},
      {"measurement": "IC50", "setting": "[3]", "value": 175, "unit": "nM"}
    ]},
    {"smiles": "C[C@H]1C[C@H](Oc2ccc(-c3ncnc(Nc4ccc(N5CCN(C6COC6)CC5)cc4)n3)cc2C#N)[C@H](F)CN1C(=O)CO", "note": "[Example 115, 2-(((2S,4S,5R)-5-fluoro-1-(2-hydroxyacetyl)-2-methylpiperidin-4-yl)oxy)-5-(4-((4-(4-(oxetan-3-yl)piperazin-1-yl)phenyl)amino)-1,3,5-triazin-2-yl)benzonitrile]", "values": [
      {"measurement": "IC50", "setting": "[1]", "value": 21, "unit": "nM"},
      {"measurement": "IC50", "setting": "[2]", "value": 12, "unit": "nM"},
      {"measurement": "IC50", "setting": "[3]", "value": "≥ 1000", "unit": "nM"}
    ]},
    {"smiles": "N#Cc1cc(-c2ncnc(Nc3ccc(N4CCN(C5COC5)CC4)cc3)n2)ccc1O[C@H]1CCN(C(=O)[C@@H]2CCC(=O)N2)CC1(F)F", "note": "[Example 116, 2-(((S)-3,3-difluoro-1-((S)-5-oxopyrrolidine-2-carbonyl)piperidin-4-yl)oxy)-5-(4-((4-(4-(oxetan-3-yl)piperazin-1-yl)phenyl)amino)-1,3,5-triazin-2-yl)benzonitrile]", "values": [
      {"measurement": "IC50", "setting": "[1]", "value": 1, "unit": "nM"},
      {"measurement": "IC50", "setting": "[2]", "value": 2, "unit": "nM"},
      {"measurement": "IC50", "setting": "[3]", "value": 146, "unit": "nM"}
    ]},
    {"smiles": "N#Cc1cc(-c2ncnc(Nc3ccc(N4CCN(C5COC5)CC4)cc3)n2)ccc1O[C@H]1CCN(C(=O)[C@@H]2CCCC(=O)N2)C[C@H]1F", "note": "[Example 117, 2-(((3R,4S)-3-fluoro-1-((S)-6-oxopiperidine-2-carbonyl)piperidin-4-yl)oxy)-5-(4-((4-(4-(oxetan-3-yl)piperazin-1-yl)phenyl)amino)-1,3,5-triazin-2-yl)benzonitrile]", "values": [
      {"measurement": "IC50", "setting": "[1]", "value": 4, "unit": "nM"},
      {"measurement": "IC50", "setting": "[2]", "value": 3, "unit": "nM"},
      {"measurement": "IC50", "setting": "[3]", "value": 342, "unit": "nM"}
    ]},
    {"smiles": "N#Cc1cc(-c2ncnc(Nc3ccc(N4CCN(C5COC5)CC4)cc3)n2)ccc1O[C@H]1CCN(C(=O)C2CCS(=O)(=O)N2)C[C@H]1F", "note": "(stereo partly drawn) [Example 118, 2-(((3R,4S)-1-(1,1-dioxidoisothiazolidine-3-carbonyl)-3-fluoropiperidin-4-yl)oxy)-5-(4-((4-(4-(oxetan-3-yl)piperazin-1-yl)phenyl)amino)-1,3,5-triazin-2-yl)benzonitrile]", "values": [
      {"measurement": "IC50", "setting": "[1]", "value": 11, "unit": "nM"},
      {"measurement": "IC50", "setting": "[2]", "value": 7, "unit": "nM"},
      {"measurement": "IC50", "setting": "[3]", "value": 284, "unit": "nM"}
    ]}
  ]
}
